# Measurements published in paper PMC9739695, “Water-Soluble Salts Based on Benzofuroxan Derivatives—Synthesis and Biological Activity” (International Journal of Molecular Sciences, 2022).
# Where two headings read alike, the source gives them in different places.
# How the values were obtained:
# [1] = system: Hek 293 (human embryonic kidneys); test: Cell viability, MTT test, normal cell line; format: cell-based; details: HEK293, Hek 293 normal cells, test range 0.1 to 100 μM, read-out: IC50 (concentration causing 50% inhibition of cell population growth)
# Procedure: (§1) In this work, the cytotoxic potential of the water-soluble salts based on benzofuroxan was determined by the effect of compounds on the survival of the cell tumor origin cultures (SH-SY5Y, Hep2, A549, HeLa) using the MTT test. To understand how the synthesized compounds can influence the healthy microenvironment in the body, the effect of substances on the viability of a normal Hek 293 cell culture was additionally evaluated.
# (§2) Human cell cultures of tumor origin—SH-SY5Y (neuroblastoma), HeLa (cervical tumor), Hep-2 (larynx carcinoma), A549 (adenocarcinomic human alveolar basal epithelial cells)—and normal cell line Hek 293 (human embryonic kidneys), provided by the Laboratory of Tumor Cell Genetics of the Scientific Research Institute of Carcinogenesis, N.N. Blokhin National Medical Research Center of Oncology, as well as the Institute of Cytology of the Russian Academy of Sciences, were grown in a nutrient medium DMEM (PanEco, Moscow, Russia) and MEM (PanEco, Moscow, Russia), containing fetal bovine serum (10% by volume) (ThermoFisher Scientific, Paisley, UK), Glutamax (2 mM) (Gibco, Scotland, UK), and penicillin-streptomycin (1% by volume) (PanEco, Moscow, Russia). The cultivation was carried out at 37 °C in a humidified CO2 atmosphere (5%).
# (§3) Cell viability was determined by MTT test. Cells were seeded in a 96-well plate in the amount of 1 × 10^4 cells/200µLof complete nutrient medium and cultured at 37 °C in CO2 (5%). After 24 h of incubation, various concentrations of test compounds in the range from 0.1 to 100 μM, were added to the cell cultures, and then the cells were cultured under the same conditions for 24 and 72 h. For each concentration, the experiment was carried out in triplicate.
# (§4) All compounds were dissolved in DMSO, then diluted with the medium to the required concentration. […] The DMSO was also added to the control wells in a volume of 1%. After the incubation time, MTT (3-(4,5-dimethylthiazol-2-yl)-2,5-diphenyltetrazolium bromide, 5 mg/mL) was added to each well and plates were additionally incubated for 2 h (until the characteristic color appeared).
# (§5) Using a plate analyzer (Cytation3, BioTech Instruments Inc., Winooski, VT, USA), the optical density was determined at 530 nm. The concentration value causing 50% inhibition of cell population growth (IC50) was determined from dose-dependent curves.
# alfalfa seeds = test: Pre-sowing seed treatment, sowing qualities of alfalfa seeds; format: in vivo; details: control 76
# Procedure: (§6) When evaluating the effectiveness of treatment of wheat, alfalfa, barley, rice, and sorghum seeds as fungicidal and bactericidal agents with preparation compounds at concentrations of 10, 20, and 40 mmol, their effect on the suppression of seed infection was evaluated.
# (§7) […] The sowing qualities were evaluated (germination energy for 3–4 days, laboratory germination for 7–8 days) according to GOST 12038-84 [60]. Sowing qualities of seeds were determined in wet chambers. According to the sample, 50 seeds were taken in 4-fold repetition.
# wheat seeds = test: Pre-sowing seed treatment, sowing qualities of wheat seeds; format: in vivo; details: for germination energy: control 82; for laboratory germination: control 85.7
# Procedure: as §6, §7
# sorghum seeds = test: Pre-sowing seed treatment, sowing qualities of sorghum seeds; format: in vivo; details: for germination energy: control 52.3; for laboratory germination: control 57
# Procedure: as §6, §7
# Hep-2 (larynx carcinoma) = test: Cell viability, MTT test; format: cell-based; details: Homo sapiens, HEp-2, test range 0.1 to 100 μM, read-out: IC50 (concentration causing 50% inhibition of cell population growth)
# Procedure: as §1, §2, §3, §4, §5
# [2] = system: A549 (adenocarcinomic human alveolar basal epithelial cells); test: Cell viability, MTT test; format: cell-based; details: test range 0.1 to 100 μM, read-out: IC50 (concentration causing 50% inhibition of cell population growth)
# Procedure: as §1, §2, §3, §4, §5
# HeLa (cervical tumor) = test: Cell viability, MTT test; format: cell-based; details: Homo sapiens, test range 0.1 to 100 μM, read-out: IC50 (concentration causing 50% inhibition of cell population growth)
# Procedure: as §1, §2, §3, §4, §5
# barley seeds = test: Pre-sowing seed treatment, sowing qualities of barley seeds; format: in vivo; details: control 95.2
# Procedure: as §6, §7
# SH-SY5Y (neuroblastoma) = test: Cell viability, MTT test; format: cell-based, Human; details: Homo sapiens, SH-SY5Y, test range 0.1 to 100 μM, read-out: IC50 (concentration causing 50% inhibition of cell population growth)
# Procedure: as §1, §2, §3, §4, §5
# [3] = system: fungal microflora (mushrooms) on alfalfa seeds; test: Growth of fungal microflora on treated alfalfa seeds; format: cell-based
# Procedure: (§8) During phytopathological analyses of agricultural crops, the species composition of fungal and bacterial microflora was established. Laboratory studies were carried out on two nutrient media potato-agar (ingredients: potatoes—200 g; agar-agar—20 g; distilled water—1000 mL.) and potato-dextrose agar (ingredients: potatoes—200 g;dextrose—20 g; agar-agar—20 g; distilled water—1000 mL), according to the guidelines.
# When evaluating the effectiveness of treatment of wheat, alfalfa, barley, rice, and sorghum seeds as […], their effect on the suppression of seed infection was evaluated.
# [4] = system: bacterial microflora on rice seeds; test: Growth of bacterial microflora on treated rice seeds; format: cell-based
# Procedure: as §8, §6
# rice seeds = test: Pre-sowing seed treatment, sowing qualities of rice seeds; format: in vivo; details: for germination energy: control 71.4; for laboratory germination: control 95.2
# Procedure: as §6, §7
# [5] = system: bacterial microflora on barley seeds; test: Growth of bacterial microflora on treated barley seeds; format: cell-based
# Procedure: as §8, §6
structure (smiles),measurement,setting,value
"O=[N+]([O-])c1c(Cl)cc2c(no[n+]2[O-])c1NCCN1CCOCC1 [4d, 6-chloro-4-(2-(morpholino-4-ium)ethylamino)-5-nitrobenzo[c][1,2,5]oxadiazole 1-oxide chloride]",IC50,[1]; incubation 24 h,40.8 ± 2.84 µM
same,IC50,[1]; incubation 72 h,28.1 ± 0.93 µM
same,germination energy,alfalfa seeds; 10 mmol,43.3%
same,laboratory germination,alfalfa seeds; 10 mmol,50%
same,germination energy,alfalfa seeds; 20 mmol,63.3%
same,laboratory germination,alfalfa seeds; 20 mmol,73.3%
same,germination energy,alfalfa seeds; 40 mmol,78%
same,laboratory germination,alfalfa seeds; 40 mmol,80.5%
same,germination energy,wheat seeds; 10 mmol,47.6%
same,laboratory germination,wheat seeds; 10 mmol,47.6%
same,germination energy,wheat seeds; 20 mmol,71.4%
same,laboratory germination,wheat seeds; 20 mmol,71.4%
same,sowing qualities of seeds compared with control,wheat seeds; 40 mmol,higher than in the case of controls
same,germination energy,wheat seeds; 40 mmol,98%
same,laboratory germination,wheat seeds; 40 mmol,98.5%
same,germination energy,sorghum seeds; 10 mmol,33.3%
same,laboratory germination,sorghum seeds; 10 mmol,40%
same,sowing qualities of seeds compared with control,sorghum seeds; 20 mmol,higher than in the control
same,germination energy,sorghum seeds; 20 mmol,76.1%
same,laboratory germination,sorghum seeds; 20 mmol,80.9%
same,germination energy,sorghum seeds; 40 mmol,58.5%
same,laboratory germination,sorghum seeds; 40 mmol,61.5%
same,IC50,"Hep-2 (larynx carcinoma); Hep2, incubation 24 h",91.3 ± 1.4 µM
same,IC50,"Hep-2 (larynx carcinoma); Hep2, incubation 72 h",89.9 ± 3.12 µM
same,IC50,"[2]; A549, incubation 24 h",> 100 µM
same,IC50,"[2]; A549, incubation 72 h",98.21 ± 0.1 µM
same,IC50,HeLa (cervical tumor); incubation 24 h,40.5 ± 1.9 µM
same,IC50,HeLa (cervical tumor); incubation 72 h,35.47 ± 0.12 µM
same,germination energy,barley seeds; 10 mmol,71.4%
same,laboratory germination,barley seeds; 10 mmol,71.4%
same,germination energy,barley seeds; 20 mmol,66.6%
same,laboratory germination,barley seeds; 20 mmol,66.6%
same,germination energy,barley seeds; 40 mmol,95%
same,laboratory germination,barley seeds; 40 mmol,98.5%
same,IC50,SH-SY5Y (neuroblastoma); incubation 24 h,24.3 ± 1.91 µM
same,IC50,SH-SY5Y (neuroblastoma); incubation 72 h,22.8 ± 1.9 µM
same,effect on fungal microflora,[3]; 10 mmol,positive effect on the suppression of fungal microflora
same,effect on fungal microflora,[3]; 20 mmol,positive effect on the suppression of fungal microflora
same,effect on bacterial microflora,[4]; 10 mmol,positive effect on the suppression of bacterial microflora
same,effect on bacterial microflora,[4]; 20 mmol,positive effect on the suppression of bacterial microflora
same,germination energy,rice seeds; 10 mmol,52.3%
same,laboratory germination,rice seeds; 10 mmol,52.3%
same,germination energy,rice seeds; 20 mmol,47.6%
same,laboratory germination,rice seeds; 20 mmol,95.2%
same,sowing qualities of seeds compared with control,rice seeds; 40 mmol,better results than the control
same,germination energy,rice seeds; 40 mmol,99%
same,laboratory germination,rice seeds; 40 mmol,99%
same,effect on bacterial microflora,[5]; 10 mmol,slight suppression of the bacterial microflora
same,effect on bacterial microflora,[5]; 40 mmol,slight suppression of the bacterial microflora
